Measured values taken from PubChem BioAssay AID2060508 (Molecular Pharmacology Branch, DTP, NCI, 2025).

Tested on: 454973-116-R2-J3-PDC spheroids, viability, % test/control
Assay: Anticancer human tumor 454973-116-R2-J3-PDC patient-derived pancreatic carcinoma cell line growth inhibition [GQUAD]
Conditions: spheroids with HUVEC and MSC; for IC50: curve of first compound; for viability, T/C: stronger effect = lower value; active = viability on the fitted dose curve at most 10% of control; inactive = the rest
Outline: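 Tumor cells were grown as complex spheroids with HUVEC endothelial cells and mesenchymal stem cells as stroma. G-quadruplex stabilizers were combined with targeted agents over half-log dilutions from near the clinical Cmax, or from 10 microM.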

[1] = second compound 0.0316 µM, first compound 0.0316 µM
[2] = second compound 0.0316 µM, first compound 0.1 µM
[3] = second compound 0.0316 µM, first compound 0.316 µM
[4] = second compound 0.0316 µM, first compound 1 µM
[5] = second compound 0.0316 µM, first compound 3.16 µM
[6] = second compound 0.0316 µM, first compound 10 µM
[7] = second compound 0.1 µM, first compound 0.0316 µM
[8] = second compound 0.1 µM, first compound 0.1 µM
[9] = second compound 0.1 µM, first compound 0.316 µM
[10] = second compound 0.1 µM, first compound 1 µM
[11] = second compound 0.1 µM, first compound 3.16 µM
[12] = second compound 0.1 µM, first compound 10 µM
[13] = second compound 0.316 µM, first compound 0.0316 µM
[14] = second compound 0.316 µM, first compound 0.1 µM
[15] = second compound 0.316 µM, first compound 0.316 µM
[16] = second compound 0.316 µM, first compound 1 µM
[17] = second compound 0.316 µM, first compound 3.16 µM
[18] = second compound 0.316 µM, first compound 10 µM
[19] = second compound 1 µM, first compound 0.0316 µM
[20] = second compound 1 µM, first compound 0.1 µM
[21] = second compound 1 µM, first compound 0.316 µM
[22] = second compound 1 µM, first compound 1 µM
[23] = second compound 1 µM, first compound 3.16 µM
[24] = second compound 1 µM, first compound 10 µM
[25] = second compound 3.16 µM, first compound 0.0316 µM
[26] = second compound 3.16 µM, first compound 0.1 µM
[27] = second compound 3.16 µM, first compound 0.316 µM
[28] = second compound 3.16 µM, first compound 1 µM
[29] = second compound 3.16 µM, first compound 3.16 µM
[30] = second compound 3.16 µM, first compound 10 µM
[31] = second compound 10 µM, first compound 0.0316 µM
[32] = second compound 10 µM, first compound 0.1 µM
[33] = second compound 10 µM, first compound 0.316 µM
[34] = second compound 10 µM, first compound 1 µM
[35] = second compound 10 µM, first compound 3.16 µM
[36] = second compound 10 µM, first compound 10 µM
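Note: spheroids exposed to compounds for seven days.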
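Throughout, for viability, T/C: 100% = DMSO vehicle control viability.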

C=CC(=O)N1CCN(c2nc(=O)n(-c3c(C)ccnc3C(C)C)c3nc(-c4c(O)cccc4F)c(F)cc23)C(C)C1 (stereo unspecified) + Cc1cnc(CNC(=O)c2c(=O)c3ccc(N4CCCN(C)CC4)nc3n3c2sc2ccccc23)cn1
active: viability, T/C [36] 1.42%
< 0.0316 µM: IC50 (second compound 10 µM)
inactive: viability, T/C [1] 100% | viability, T/C [2] 94.2% | viability, T/C [3] 105% | viability, T/C [4] 116% | viability, T/C [5] 118% | viability, T/C [6] 118% | viability, T/C [7] 78.1% | viability, T/C [8] 80.1% | viability, T/C [9] 87.6% | viability, T/C [10] 96.9% | viability, T/C [11] 104% | viability, T/C [12] 97.1% | viability, T/C [13] 79.2% | viability, T/C [14] 79.6% | viability, T/C [15] 71.1% | viability, T/C [16] 78.5% | viability, T/C [17] 85.8% | viability, T/C [18] 76.7% | viability, T/C [19] 73.9% | viability, T/C [20] 72.4% | viability, T/C [21] 75.2% | viability, T/C [22] 81.1% | viability, T/C [23] 90.8% | viability, T/C [24] 73.4% | viability, T/C [25] 59.2% | viability, T/C [26] 64.3% | viability, T/C [27] 78.5% | viability, T/C [28] 74.4% | viability, T/C [29] 86.6% | viability, T/C [30] 76.7% | viability, T/C [31] 0.33% | viability, T/C [32] 19.3% | viability, T/C [33] 58.5% | viability, T/C [34] 70.6% | viability, T/C [35] 0.37%
> 10 µM: IC50 (second compound 0.0316 µM) | IC50 (second compound 0.1 µM) | IC50 (second compound 0.316 µM) | IC50 (second compound 1 µM) | IC50 (second compound 3.16 µM)

Cc1cccc(N(C)C(=O)C2C(O)CCN2c2nc(C)cc(C(F)(F)F)c2C#N)c1 (stereo unspecified) + Cc1cnc(CNC(=O)c2c(=O)c3ccc(N4CCCN(C)CC4)nc3n3c2sc2ccccc23)cn1
inactive: viability, T/C [1] 103% | viability, T/C [2] 96.8% | viability, T/C [3] 107% | viability, T/C [4] 87.5% | viability, T/C [5] 108% | viability, T/C [6] 93.4% | viability, T/C [7] 88.2% | viability, T/C [8] 74.3% | viability, T/C [9] 71.9% | viability, T/C [10] 68.7% | viability, T/C [11] 70.2% | viability, T/C [12] 69.9% | viability, T/C [13] 74.5% | viability, T/C [14] 71.5% | viability, T/C [15] 71.3% | viability, T/C [16] 67.6% | viability, T/C [17] 70.8% | viability, T/C [18] 66.1% | viability, T/C [19] 71.9% | viability, T/C [20] 65.5% | viability, T/C [21] 61.2% | viability, T/C [22] 65.2% | viability, T/C [23] 65% | viability, T/C [24] 70% | viability, T/C [25] 64.2% | viability, T/C [26] 59.4% | viability, T/C [27] 62.1% | viability, T/C [28] 65.3% | viability, T/C [29] 58.2% | viability, T/C [30] 68.4% | viability, T/C [31] 0.75% | viability, T/C [32] 16.9% | viability, T/C [33] 51.1% | viability, T/C [34] 34.8% | viability, T/C [35] 0.59% | viability, T/C [36] 0.31%
< 0.0316 µM: IC50 (second compound 10 µM)
> 10 µM: IC50 (second compound 0.0316 µM) | IC50 (second compound 0.1 µM) | IC50 (second compound 0.316 µM) | IC50 (second compound 1 µM) | IC50 (second compound 3.16 µM)

Cn1ncnc1[C@H]1c2n[nH]c(=O)c3cc(F)cc(c23)N[C@@H]1c1ccc(F)cc1 + Cc1cnc(CNC(=O)c2c(=O)c3ccc(N4CCCN(C)CC4)nc3n3c2sc2ccccc23)cn1
inactive: viability, T/C (second compound 0.0316 µM, first compound 0.000999 µM) 108% | viability, T/C (second compound 0.0316 µM, first compound 0.00316 µM) 90.2% | viability, T/C (second compound 0.0316 µM, first compound 0.00999 µM) 91.4% | viability, T/C [1] 80.8% | viability, T/C (second compound 0.0316 µM, first compound 0.0999 µM) 70% | viability, T/C [3] 59% | viability, T/C (second compound 0.1 µM, first compound 0.000999 µM) 83.1% | viability, T/C (second compound 0.1 µM, first compound 0.00316 µM) 88.3% | viability, T/C (second compound 0.1 µM, first compound 0.00999 µM) 71.8% | viability, T/C [7] 60% | viability, T/C (second compound 0.1 µM, first compound 0.0999 µM) 48.8% | viability, T/C [9] 36.6% | viability, T/C (second compound 0.316 µM, first compound 0.000999 µM) 75.8% | viability, T/C (second compound 0.316 µM, first compound 0.00316 µM) 70.3% | viability, T/C (second compound 0.316 µM, first compound 0.00999 µM) 65.3% | viability, T/C [13] 51.4% | viability, T/C (second compound 0.316 µM, first compound 0.0999 µM) 47.2% | viability, T/C [15] 41.6% | viability, T/C (second compound 1 µM, first compound 0.000999 µM) 64.1% | viability, T/C (second compound 1 µM, first compound 0.00316 µM) 64.6% | viability, T/C (second compound 1 µM, first compound 0.00999 µM) 62% | viability, T/C [19] 53.3% | viability, T/C (second compound 1 µM, first compound 0.0999 µM) 56.3% | viability, T/C [21] 48.6% | viability, T/C (second compound 3.16 µM, first compound 0.000999 µM) 62.1% | viability, T/C (second compound 3.16 µM, first compound 0.00316 µM) 53.4% | viability, T/C (second compound 3.16 µM, first compound 0.00999 µM) 60.2% | viability, T/C [25] 58.5% | viability, T/C (second compound 3.16 µM, first compound 0.0999 µM) 57.1% | viability, T/C [27] 53.6% | viability, T/C (second compound 10 µM, first compound 0.000999 µM) 0.31% | viability, T/C (second compound 10 µM, first compound 0.00316 µM) 0.55% | viability, T/C (second compound 10 µM, first compound 0.00999 µM) 31% | viability, T/C [31] 36.7% | viability, T/C (second compound 10 µM, first compound 0.0999 µM) 0.53% | viability, T/C [33] 0.27%
> 0.316 µM: IC50 (second compound 0.0316 µM) | IC50 (second compound 1 µM) | IC50 (second compound 3.16 µM)
0.0518 µM: IC50 (second compound 0.316 µM)
< 0.000999 µM: IC50 (second compound 10 µM)
0.0768 µM: IC50 (second compound 0.1 µM)
